Data published in US20160089365A1, “IMMUNOSTIMULATORY COMPOUND” (Eisai R&D Management Co., Ltd., priority 2014, published 2016).
“Also recorded” adds a separate entry of the source.

Experiments:
[1] = Body weight of mice during the xenograft study; type: in vivo, Mouse; conditions: athymic and wild-type mice, oral 3 and 10 mg/kg once daily for 7 days, during the study period
Experimental: (§1) Lenvatinib mesilate (3 and 10 mg/kg) or vehicle was orally administered at 0.1 mL/10 g body weight, once daily for 7 days (Day 1-7). The tumor volume and body weight of mice were measured on Day 1, 3, 6, and 8.

[2] = test system: tumor-associated macrophage (TAM) population in tumor; assay: Immune population analysis in BNL 1MEA.7R.1 xenograft tumor of wild-type mice by flow cytometry; type: in vivo, Mouse (BALB/cAnNCrlCrlj; conditions: oral 10 mg/kg once a day for 7 days, Day 8
Experimental: Half-cut tumor samples collected from BNL 1MEA.7R.1 xenograft model in wild-type mice 1 day after the administration of vehicle or lenvatinib mesilate (10 mg/kg) in Referential Ex. 1 (Group 4, 6, 7, and 8) were minced with a razor on ice. The tumor fragments were digested with collagenase (1900 U/mL) and deoxyribonuclease I (160 KIU/mL) in HBSS for 1 hour at 37° C. with magnetic stirring in flasks. After filtering through cell strainer (pore size 70 μm), harvested cells were washed 3 times with flow cytometry buffer (PBS supplemented with 0.5% bovine serum albumin and 2 mmol/L EDTA). Cells were resuspended with 200 μL of FCM buffer containing 5 μg/mL Mouse BD Fc Block™ (BD biosciences), and incubated at 4° C. for 10 minutes. Antibody cocktail (dilution; 1:2 in FCM buffer) 1 and 2 were prepared as below.
One hundred microliters of cell suspension was mixed with 100 μL of the antibody cocktail 1 or 2 in each well of two 96-well cell culture round bottom plates (Corning Incorporated), and incubated at 4° C. for 30 minutes in a light protected. […] Data were analyzed by FCM analysis software FlowJo 7.6.5 (Tree Star, Inc.).
Data are expressed as mean±SD. The differences in percentage of target cells in CD45^+ cells between vehicle- and lenvatinib mesilate-treated groups were analyzed by the unpaired t test.

[3] = test system: BNL 1MEA.7R.1 murine hepatocellular carcinoma xenografts; assay: Antitumor effects in BNL 1MEA.7R.1 murine hepatocellular carcinoma xenografts in wild-type mice; type: in vivo, Mouse (BALB/cAnNCrlCrlj; conditions: Day 8
Experimental: The BNL 1MEA.7R. 1 murine hepatocellular carcinoma cells were cultured in Dulbecco's minimal essential medium (DMEM) supplemented with 10% heat-inactivated (56° C., 30 minutes) fetal bovine serum (FBS) and 100 U/mL penicillin, 100 μg/mL streptomycin, 1-glutamine (2 mmol/L) in humidified atmosphere of 5% CO2 at 37° C. This tumor cell line was developed from BALB/c mouse. The cells were washed with phosphate buffered saline (PBS), harvested with 0.25% trypsin-EDTA, and suspended with 50% BD Matrigel™ (BD biosciences) in the Hank's balanced salt solution (HBSS) at a density of 1×10^8 cells/mL. A 0.1 mL aliquot of the cell suspension was inoculated subcutaneously into the right flank of each mouse. Fifty days after the inoculation (Day 1), 15 out of 25 athymic mice and 25 out of 33 wild-type mice were selected based on their tumor volumes, shapes of tumors, physical condition, and body weights. Then the selected athymic and wild-type mice were randomly divided into 3 groups (Group 1-3 in the following table “Treatment Groups”) and 5 groups (Group 4-8), respectively. Animals assigned to Group 4, 6, 7, and 8 were used in Ex. 1 and 2. The mean tumor volumes of athymic and wild-type mice assigned to 8 groups were 169.5 and 157.5 mm^3, respectively, on Day 1.
as §1
Tumor volume (mm^3)=length (mm)×width^2 (mm^2)×1/2
(§2) Data are expressed as mean±SD. The differences in relative tumor volume on Day 8 between vehicle- and lenvatinib mesilate-treated groups (3 and 10 mg/kg) in athymic and wild-type mice were analyzed by one-way analysis of variance followed by the Dunnett multiple comparison test, respectively. […]
To compare antitumor activities of lenvatinib mesilate between different strains, differences in % TGI of lenvatinib mesilate between athymic and wild-type mice at each dose were analyzed by the unpaired t test.

[4] = test system: IFN-γ+ cells in CD8+ T cells of draining lymph nodes; assay: IFN-γ staining analysis of CD8+ T cells derived from draining lymph nodes in BNL 1MEA.7R.1 xenografts in wild-type mice; type: in vivo, Mouse (BALB/cAnNCrlCrlj; conditions: oral 10 mg/kg once a day for 7 days, Day 8
Experimental: Draining lymph nodes derived from BNL 1MEA.7R. 1 xenograft model in wild-type mice 1 day after once-daily oral administration of vehicle or lenvatinib mesilate (10 mg/kg) for 7 days in Referential Ex. 1 were isolated and mashed by a 5-mL syringe. The cell number in suspension was calculated and adjusted to 2.0×10^6 cells/mL with RPMI1640 containing 10% FBS, 100 U/mL penicillin, and 100 μg/mL streptomycin. One hundred microliters per well of the resultant cell suspension were plated in a 96-well cell culture cluster round bottom plate (Corning Incorporated) and cultured with BD Goldi-Stop™ (final concentration [conc.] 4 μL/6 mL) for 5 hours in 5% CO2 at 37° C. […] After washing with 200 μL of BD Perm/Wash buffer 2 times, the resultant cells were resuspended with 200 μL of BD Perm/Wash buffer, and analyzed to detect percentage of IFN-γ-positive cells in CD3- and CD8-positive cells by FACSAriaII SORP cell sorter (Becton, Dickinson and company) with BD FACSDiva 6.1.3 software (Becton, Dickinson and company). […]
Data are expressed as mean±SD. The differences in percentage of IFN-γ-positive cells in CD8^+ T cells between vehicle- and lenvatinib mesilate-treated groups were analyzed by the unpaired t test

[5] = test system: BNL 1MEA.7R.1 murine hepatocellular carcinoma xenografts; assay: Antitumor effects in BNL 1MEA.7R.1 murine hepatocellular carcinoma xenografts in athymic mice; type: in vivo, Mouse (CAnN.Cg-Foxn1nu/CrlCrlj; conditions: oral 3 and 10 mg/kg once daily for 7 days, Day 8
Experimental: The BNL 1MEA.7R. 1 murine hepatocellular carcinoma cells were cultured in Dulbecco's minimal essential medium (DMEM) supplemented with 10% heat-inactivated (56° C., 30 minutes) fetal bovine serum (FBS) and 100 U/mL penicillin, 100 μg/mL streptomycin, 1-glutamine (2 mmol/L) in humidified atmosphere of 5% CO2 at 37° C. This tumor cell line was developed from BALB/c mouse. The cells were washed with phosphate buffered saline (PBS), harvested with 0.25% trypsin-EDTA, and suspended with 50% BD Matrigel™ (BD biosciences) in the Hank's balanced salt solution (HBSS) at a density of 1×10^8 cells/mL. A 0.1 mL aliquot of the cell suspension was inoculated subcutaneously into the right flank of each mouse. Fifty days after the inoculation (Day 1), 15 out of 25 athymic mice and 25 out of 33 wild-type mice were selected based on their tumor volumes, shapes of tumors, physical condition, and body weights. […]
Lenvatinib mesilate (3 and 10 mg/kg) or vehicle was orally administered at 0.1 mL/10 g body weight, once daily for 7 days (Day 1-7). The tumor volume and body weight of mice were measured on Day 1, 3, 6, and 8. […]
as §2

## COc1cc2nccc(Oc3ccc(NC(=O)NC4CC4)c(Cl)c3)c2cc1C(N)=O [lenvatinib mesilate, 4-(3-chloro-4-(cyclopropylaminocarbonyl)aminophenoxy)-7-methoxy-6-quinolinecarboxamide]
[1]
  body weight loss: Any severe body weight loss was not observed
[2]
  percentage of TAM population (CD45+CD11b+Ly6G-F4/80+Ly6Clow) in total CD45+ cells compared to vehicle: significant reduction
  percentage of immature TAM (CD45+CD11b+Ly6G-F4/80-Ly6Chigh) in total CD45+ cells compared to vehicle: increased
[3]; oral 3 and 10 mg/kg once daily for 7 days
  % TGI in wild-type mice compared to athymic mice at each dose: significantly larger
[3]; wild-type mice, both treatment groups (3 and 10 mg/kg)
  tumor shrinkage in individual animals: tumors from all animals shrank
[3]; wild-type mice, oral 3 and 10 mg/kg once daily for 7 days
  tumor volume compared to vehicle: significant reduction in tumor volume
[4]
  percentage of IFN-γ+ cells in CD8+ T cells in dLN compared to vehicle: significantly increased
[5]
  tumor volume compared to vehicle: no significant difference; also recorded: only tumor growth delay
